Assay results as given in patent publication US10357493B2, “Metalloenzyme inhibitor compounds” (Selenity Therapeutics (Bermuda), Ltd., priority 2017, dated 2019).

Experiments:
HDAC1 = HDAC1 (Homo sapiens (Human), UniProt Q13547); assay: HDAC1 enzymatic assay; type: biochemical; conditions: read-out: Human HDAC1 IC50
Protocol: (§1) All enzymatic reactions were conducted in duplicate at room temperature for 17 hours in a 50 μl mixture containing HDAC assay buffer (50 mM Tris-HCl, pH 7.4, 137 mM NaCl, 2.7 mM KCl, 0.05% Tween 20, 5 μg BSA), an HDAC substrate, an HDAC enzyme, and a test compound. Compound dilution was prepared ten-fold higher than the final concentration of the compounds with 10% DMSO in HDAC assay buffer and 5 μl of the dilution was added to a 50 μl reaction so that the final concentration of DMSO is 1% in all of reactions. After enzymatic reactions, 50 μl of HDAC Developer was added to each well and the plate was incubated at room temperature for an additional 20 minutes. Fluorescence intensity was measured at an excitation of 360 nm and an emission of 460 nm using a Tecan Infinite M1000 or Biotek Synergy microplate reader.
(§2) The fluorescent intensity data were analyzed using the computer software, Graphpad Prism. In the absence of the compound, the fluorescent intensity (Ft) in each data set was defined as 100% activity. In the absence of HDAC, the fluorescent intensity (Fb) in each data set was defined as 0% activity. The percent activity in the presence of each compound was calculated according to the following equation: % activity=(F−Fb)/(Ft−Fb), where F=the fluorescent intensity in the presence of the compound.
(§3) The values of % activity versus a series of compound concentrations were then plotted using non-linear regression analysis of Sigmoidal dose-response curve generated with the equation Y=B+(T−B)/1+10((Log EC50−X)×Hill Slope), where Y=percent activity, B=minimum percent activity, T=maximum percent activity, X=logarithm of compound and Hill Slope=slope factor or Hill coefficient. The IC50 value was determined by the concentration causing a half-maximal percent activity.
(§4) HDAC1 enzymatic assays contained 0.5 ng HDAC1 and 10 uM of HDAC substrate. HDAC2 enzymatic assays contained 0.5 ng HDAC2 and 10 uM of HDAC substrate. HDAC3 enzymatic assays contained 0.4 ng HDAC3/NCOR2 and 10 uM of HDAC substrate. HDAC4 enzymatic assays contained 0.02 ng HDAC4 and 2 uM of HDAC substrate. HDAC5 enzymatic assays contained 0.5 ng HDAC5 and 2 uM of HDAC substrate. HDAC6 enzymatic assays contained 2 ng HDAC6 and 10 uM of HDAC substrate. HDAC7 enzymatic assays contained 0.05 ng HDAC7 and 2 uM of HDAC substrate. HDAC8 enzymatic assays contained 5 ng HDAC8 and 2 uM of HDAC substrate. HDAC9 enzymatic assays contained 1 ng HDAC9 and 2 uM of HDAC substrate. HDAC10 enzymatic assays contained 75 ng HDAC10 and 10 uM of HDAC substrate. HDAC11 enzymatic assays contained 5 ng HDAC11 and 2 uM of HDAC substrate.

HDAC6 = HDAC6 (Homo sapiens (Human), UniProt Q9UBN7); assay: HDAC6 enzymatic assay; type: biochemical; conditions: read-out: Human HDAC6 IC50
Sequence of HDAC6 (Q9UBN7 whole entry): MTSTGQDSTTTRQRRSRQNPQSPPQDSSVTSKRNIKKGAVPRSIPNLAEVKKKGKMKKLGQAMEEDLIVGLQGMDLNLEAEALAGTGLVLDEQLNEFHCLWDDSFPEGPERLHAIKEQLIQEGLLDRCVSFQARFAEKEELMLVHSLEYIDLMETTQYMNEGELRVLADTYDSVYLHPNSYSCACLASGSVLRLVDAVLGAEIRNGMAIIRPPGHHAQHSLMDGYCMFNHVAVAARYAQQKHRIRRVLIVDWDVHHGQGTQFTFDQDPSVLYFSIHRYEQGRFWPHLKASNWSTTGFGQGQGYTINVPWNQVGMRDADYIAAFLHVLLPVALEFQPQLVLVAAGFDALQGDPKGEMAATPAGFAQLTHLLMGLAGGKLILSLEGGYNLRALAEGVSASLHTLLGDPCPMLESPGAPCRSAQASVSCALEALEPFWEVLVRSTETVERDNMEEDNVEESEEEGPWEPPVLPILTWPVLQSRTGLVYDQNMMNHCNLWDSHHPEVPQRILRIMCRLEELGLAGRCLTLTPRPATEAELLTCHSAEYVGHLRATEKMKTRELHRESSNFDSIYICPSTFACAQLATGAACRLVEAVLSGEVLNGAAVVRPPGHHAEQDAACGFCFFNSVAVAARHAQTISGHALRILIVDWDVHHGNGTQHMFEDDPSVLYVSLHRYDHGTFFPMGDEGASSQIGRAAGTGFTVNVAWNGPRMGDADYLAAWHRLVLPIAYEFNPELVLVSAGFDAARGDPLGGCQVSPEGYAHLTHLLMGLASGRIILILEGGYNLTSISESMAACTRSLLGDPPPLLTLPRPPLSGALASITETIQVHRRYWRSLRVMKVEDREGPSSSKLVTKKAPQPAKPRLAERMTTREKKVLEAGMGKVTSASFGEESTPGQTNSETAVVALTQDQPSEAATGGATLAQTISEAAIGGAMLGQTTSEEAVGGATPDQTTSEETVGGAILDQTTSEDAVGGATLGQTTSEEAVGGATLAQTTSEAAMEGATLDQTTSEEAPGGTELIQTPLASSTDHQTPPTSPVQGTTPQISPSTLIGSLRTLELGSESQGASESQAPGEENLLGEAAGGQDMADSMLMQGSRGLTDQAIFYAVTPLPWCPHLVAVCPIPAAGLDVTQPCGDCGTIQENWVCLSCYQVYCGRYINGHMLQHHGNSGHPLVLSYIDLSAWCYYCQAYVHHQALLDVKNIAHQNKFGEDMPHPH
Protocol: as §1, §2, §3, §4

Sequence of HDAC1 (Q13547 whole entry): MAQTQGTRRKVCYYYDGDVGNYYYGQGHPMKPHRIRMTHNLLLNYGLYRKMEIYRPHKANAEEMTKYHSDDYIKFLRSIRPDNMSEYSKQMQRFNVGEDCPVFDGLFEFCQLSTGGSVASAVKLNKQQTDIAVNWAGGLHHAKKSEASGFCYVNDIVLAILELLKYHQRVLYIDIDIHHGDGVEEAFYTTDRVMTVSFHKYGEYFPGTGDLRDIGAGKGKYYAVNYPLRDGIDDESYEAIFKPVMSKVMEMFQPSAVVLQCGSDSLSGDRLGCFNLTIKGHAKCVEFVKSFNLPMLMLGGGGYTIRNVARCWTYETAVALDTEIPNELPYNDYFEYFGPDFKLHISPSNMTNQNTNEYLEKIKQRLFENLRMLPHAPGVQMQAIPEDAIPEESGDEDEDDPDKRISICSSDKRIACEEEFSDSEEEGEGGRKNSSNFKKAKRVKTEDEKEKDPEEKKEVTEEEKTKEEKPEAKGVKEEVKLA

IC50 (HDAC1) [nM] | IC50 (HDAC6) [nM] | SMILES
> 30000 | 280 | O=S(=O)(C1CC1)N(CC(Nc1ncc(-c2nnc(C(F)F)o2)cn1)c1ccc(OC(F)F)cc1F)CC(F)(F)F (stereo not drawn) [152(+), N-(2-(4-(difluoromethoxy)-2-fluorophenyl)-2-((5-(5-(difluoromethyl)-1,3,4-oxadiazol-2-yl)pyrimidin-2-yl)amino)ethyl)-N-(2,2,2-trifluoroethyl)cyclopropanesulfonamide]
> 30000 | 110 | CCS(=O)(=O)N(CC(Nc1ncc(-c2nnc(C(F)F)o2)cn1)c1ccc(F)cc1)CC(F)(F)F (single isomer, unassigned) [164(+), N-(2-((5-(5-(difluoromethyl)-1,3,4-oxadiazol-2-yl)pyrimidin-2-yl)amino)-2-(4-fluorophenyl)ethyl)-N-(2,2,2-trifluoroethyl)ethanesulfonamide]
> 30000 | 88 | Fc1ccc(C2(Nc3ncc(-c4nnc(C(F)F)o4)cn3)CC2)c(C(F)(F)F)c1 [Example 63, 5-(5-(difluoromethyl)-1,3,4-oxadiazol-2-yl)-N-(1-(4-fluoro-2-(trifluoromethyl)phenyl)cyclopropyl) pyrimidin-2-amine]
> 30000 | 76 | CCS(=O)(=O)N(C)CC(Nc1ncc(-c2nnc(C(F)F)o2)cn1)c1ccc(OC(F)(F)F)cc1 (stereo not drawn) [156(+), N-(2-((5-(5-(difluoromethyl)-1,3,4-oxadiazol-2-yl)pyrimidin-2-yl)amino)-2-(4-(trifluoromethoxy)phenyl)ethyl)-N-methylethanesulfonamide]
> 30000 | 50 | O=C(NCC(Nc1ncc(-c2nnc(C(F)F)o2)cn1)c1ccc(F)cc1)C(F)(F)F (stereo not shown) [Example 114, N-(2-((5-(5-(difluoromethyl)-1,3,4-oxadiazol-2-yl)pyrimidin-2-yl)amino)-2-(4-fluorophenyl)ethyl)-2,2,2-trifluoroacetamide]
> 30000 | 110 | O=S(=O)(C1CC1)N(CC(Nc1ncc(-c2nnc(C(F)F)o2)cn1)c1ccc(F)cc1)CC(F)(F)F (single isomer, unassigned) [165(+), N-(2-((5-(5-(difluoromethyl)-1,3,4-oxadiazol-2-yl)pyrimidin-2-yl)amino)-2-(4-fluorophenyl)ethyl)-N-(2,2,2-trifluoroethyl)cyclopropanesulfonamide]
> 30000 | 650 | CS(=O)(=O)NCC(Nc1ncc(-c2nnc(C(F)F)o2)cn1)c1ccc(F)cc1F (single isomer, unassigned) [103(−), N-(2-((5-(5-(difluoromethyl)-1,3,4-oxadiazol-2-yl)pyrimidin-2-yl)amino)-2-(2,4-difluorophenyl)ethyl)methanesulfonamide]
> 30000 | 790 | Fc1ccc2c(c1)CCCC2Nc1ncc(-c2nnc(C(F)F)o2)cn1 (stereo not shown) [Example 34, 5-(5-(difluoromethyl)-1,3,4-oxadiazol-2-yl)-N-(6-fluoro-1,2,3,4-tetrahydronaphthalen-1-yl)pyrimidin-2-amine]
> 30000 | 160 | Fc1ccc(C(Cn2cc(C(F)(F)F)cn2)Nc2ncc(-c3nnc(C(F)F)o3)cn2)cc1 (single isomer, unassigned) [176(+), 5-(5-(difluoromethyl)-1,3,4-oxadiazol-2-yl)-N-(1-(4-fluorophenyl)-2-(4-(trifluoromethyl)-1H-pyrazol-1-yl)ethyl)pyrimidin-2-amine]
> 30000 | 19 | CCS(=O)(=O)N(C)CC(Nc1ncc(-c2nnc(C(F)F)o2)cn1)c1ccc(OC(F)F)cc1F (stereo not drawn) [148(+), N-(2-(4-(difluoromethoxy)-2-fluorophenyl)-2-((5-(5-(difluoromethyl)-1,3,4-oxadiazol-2-yl)pyrimidin-2-yl)amino)ethyl)-N-methylethanesulfonamide]
> 30000 | 20 | CN(CC(Nc1ncc(-c2nnc(C(F)F)o2)cn1)c1ccc(OC(F)(F)F)cc1)S(C)(=O)=O (stereo not drawn) [153(+), N-(2-((5-(5-(difluoromethyl)-1,3,4-oxadiazol-2-yl)pyrimidin-2-yl)amino)-2-(4-(trifluoromethoxy)phenyl)ethyl)-N-methylmethanesulfonamide]
> 30000 | 93 | CC(=O)N(C)CC(Nc1ncc(-c2nnc(C(F)F)o2)cn1)c1ccc(F)cc1 (single isomer, unassigned) [166(+), N-(2-((5-(5-(difluoromethyl)-1,3,4-oxadiazol-2-yl)pyrimidin-2-yl)amino)-2-(4-fluorophenyl)ethyl)-N-methylacetamide]
> 30000 | 140 | CC(=O)N1CCC(Nc2ncc(-c3nnc(C(F)F)o3)cn2)(c2ccc(F)cc2)CC1 [Example 26, 1-(4-((5-(5-(difluoromethyl)-1,3,4-oxadiazol-2-yl)pyrimidin-2-yl)amino)-4-(4-fluorophenyl)piperidin-1-yl)ethan-1-one]
> 30000 | 1100 | CN(CC(Nc1ncc(-c2nnc(C(F)F)o2)cn1)c1ccc(F)cc1)C(=O)C1CC1 (single isomer, unassigned) [169(−), N-(2-((5-(5-(difluoromethyl)-1,3,4-oxadiazol-2-yl)pyrimidin-2-yl)amino)-2-(4-fluorophenyl)ethyl)-N-methylcyclopropanecarboxamide]
> 30000 | 200 | CCS(=O)(=O)N(CC(Nc1ncc(-c2nnc(C(F)F)o2)cn1)c1ccc(OC(F)F)cc1F)CC(F)(F)F (stereo not drawn) [149(+), N-(2-(4-(difluoromethoxy)-2-fluorophenyl)-2-((5-(5-(difluoromethyl)-1,3,4-oxadiazol-2-yl)pyrimidin-2-yl)amino)ethyl)-N-(2,2,2-trifluoroethyl)ethanesulfonamide]
> 30000 | 250 | COc1cccc(C2(Nc3ncc(-c4nnc(C(F)(F)F)o4)cn3)CC2)c1 [Example 41, N-(1-(3-methoxyphenyl)cyclopropyl)-5-(5-(trifluoromethyl)-1,3,4-oxadiazol-2-yl)pyrimidin-2-amine]
> 30000 | 260 | CS(=O)(=O)NCC(Nc1ncc(-c2nnc(C(F)F)o2)cn1)c1ccc(OC(F)F)cc1F (single isomer, unassigned) [116(−), N-(2-(4-(difluoromethoxy)-2-fluorophenyl)-2-((5-(5-(difluoromethyl)-1,3,4-oxadiazol-2-yl)pyrimidin-2-yl)amino)ethyl)methanesulfonamide]
> 30000 | 440 | CCS(=O)(=O)N(CC(Nc1ncc(-c2nnc(C(F)F)o2)cn1)c1ccc(OC(F)(F)F)cc1)CC(F)(F)F (stereo not drawn) [157(+), N-(2-((5-(5-(difluoromethyl)-1,3,4-oxadiazol-2-yl)pyrimidin-2-yl)amino)-2-(4-(trifluoromethoxy)phenyl)ethyl)-N-(2,2,2-trifluoroethyl)ethanesulfonamide]
> 30000 | 210 | FC(F)c1nnc(-c2cnc(OC3(c4ccccc4)CC3)nc2)o1 [Example 12, 2-(difluoromethyl)-5-(2-(1-phenylcyclopropoxy)pyrimidin-5-yl)-1,3,4-oxadiazole]
> 30000 | 58 | CCS(=O)(=O)N(C)CC(Nc1ncc(-c2nnc(C(F)F)o2)cn1)c1ccc(F)cc1F (stereo not drawn) [140(+), N-(2-((5-(5-(difluoromethyl)-1,3,4-oxadiazol-2-yl)pyrimidin-2-yl)amino)-2-(2,4-difluorophenyl)ethyl)-N-methylethanesulfonamide]
> 30000 | 42 | Fc1cc(Cl)ccc1C1(Nc2ncc(-c3nnc(C(F)F)o3)cn2)CC1 [Example 66]
> 30000 | 35 | Cc1ccc(Cl)c(C2(Nc3ncc(-c4nnc(C(F)F)o4)cn3)CC2)c1 [Example 90, N-(1-(2-chloro-5-methylphenyl)cyclopropyl)-5-(5-(difluoromethyl)-1,3,4-oxadiazol-2-yl)pyrimidin-2-amine]
> 30000 | 580 | O=S(=O)(C1CC1)N(CC(Nc1ncc(-c2nnc(C(F)F)o2)cn1)c1ccc(OC(F)(F)F)cc1)CC(F)(F)F (stereo not drawn) [160(+), N-(2-((5-(5-(difluoromethyl)-1,3,4-oxadiazol-2-yl)pyrimidin-2-yl)amino)-2-(4-(trifluoromethoxy)phenyl)ethyl)-N-(2,2,2-trifluoroethyl)cyclopropanesulfonamide]
